The test system of the assay is phosphorylation of Akt. In words: Inhibition of phosphorylation of Akt by FAP5-PI3K inhibitors in TGF-β1 stimulated primary HLF (western blot). The settings on record: 24 hours and 48 hours of incubation, compounds with non-releasable linkers. Format: cell-based. The procedure: Primary HLF with passage number #˜8 were seeded in Dulbecco's Modified Eagle Medium (DMEM) with 10% fetal bovine serum (FBS) (˜100,000 cells/well) in 12 well plates to achieve ˜80% confluency. The cells were then starved in DMEM with 0.4% FBS for 24 hours, followed by stimulation by 10 ng/mL transforming growth factor-beta 1 (TGF-β1) for 24 hours.
After stimulation, cells were incubated with the FAP5-PI3K inhibitors for 2 hours, followed by replacement of culture media containing 2 ng/mL TGF-β1 and incubated for 24 hours (see FIG. 21) and 48 hours (see FIG. 22). All wells are added with 0.1% of DMSO as vehicle.
Cells were detached using trypsin and lysed with lysis buffer, proteins from cells were extracted for western blot analysis.
A general note: A western blot detects proteins with antibodies after separation by electrophoresis.

Turning to `COc1ncc(-c2ccc3nccc(-c4ccc(COC(=O)NCCNC(=O)CCc5cccc6c5CN(C(=O)C[C@@H]5C[C@@H](C(=O)N7CC(F)(F)C[C@H]7C#N)NC5=O)C6)nc4)c3c2)cc1NS(=O)(=O)c1ccc(F)cc1F` [FAP5-Carbamate-PI3ki], the “inhibition of phosphorylation of Akt (pAkt normalized to tAkt)” value is “consistently performed better than FAP5-Ester-PI3Ki and FAP5-PI3Ki-NR”.
